{"source": "patent US20110294772A1", "about": "“USE OF CYCLOSQUARAMIDE COMPOUNDS AS ANTI-TUMOUR AGENTS” (priority 2008, published 2011)", "key": {"[1]": {"molecular_target": "ABL1 (Homo sapiens, UniProt P00519)", "assay": "in vitro kinase assay", "format": "biochemical", "description": "(§1) Specifically, against a panel of 210 kinases representative of the human kinome, the compounds tested inhibited by […] the activity of 25 of them in in Vitro assays (Table 1).\n(§2) The IC50 was determined for the most sensitive kinases to compound 10, obtaining values for said parameter, largely in the micromolar range. For this purpose, the 25 kinases inhibited more than 80% by the compound in in vitro assays were selected."}, "[2]": {"molecular_target": "ACK1 (Homo sapiens, UniProt Q07912)", "assay": "in vitro kinase assay", "format": "biochemical", "description": "as §1, §2"}, "[3]": {"molecular_target": "CDK4/CycD3 (Homo sapiens, UniProt P11802)", "sequence (P11802 whole entry)": "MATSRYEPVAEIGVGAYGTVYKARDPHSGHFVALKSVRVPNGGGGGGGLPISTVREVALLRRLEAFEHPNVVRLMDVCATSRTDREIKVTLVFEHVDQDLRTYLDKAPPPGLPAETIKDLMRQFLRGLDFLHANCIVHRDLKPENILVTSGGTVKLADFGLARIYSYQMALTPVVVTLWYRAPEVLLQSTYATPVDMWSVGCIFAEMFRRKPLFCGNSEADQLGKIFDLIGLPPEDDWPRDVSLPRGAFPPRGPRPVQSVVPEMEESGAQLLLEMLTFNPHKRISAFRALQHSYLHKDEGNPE", "sequence (P30281 whole entry partner)": "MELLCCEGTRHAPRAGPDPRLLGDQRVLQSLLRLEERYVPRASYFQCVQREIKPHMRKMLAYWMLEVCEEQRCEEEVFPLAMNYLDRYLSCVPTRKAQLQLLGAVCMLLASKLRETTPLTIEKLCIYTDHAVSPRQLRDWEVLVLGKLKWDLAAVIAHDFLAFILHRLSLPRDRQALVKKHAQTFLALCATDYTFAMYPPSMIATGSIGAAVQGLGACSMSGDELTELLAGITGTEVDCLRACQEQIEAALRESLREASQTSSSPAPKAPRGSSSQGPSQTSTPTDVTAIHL", "assay": "in vitro kinase assay", "format": "biochemical", "description": "as §1, §2"}, "[4]": {"molecular_target": "CDK5/p25NCK (Homo sapiens, UniProt Q00535)", "sequence (Q00535 whole entry)": "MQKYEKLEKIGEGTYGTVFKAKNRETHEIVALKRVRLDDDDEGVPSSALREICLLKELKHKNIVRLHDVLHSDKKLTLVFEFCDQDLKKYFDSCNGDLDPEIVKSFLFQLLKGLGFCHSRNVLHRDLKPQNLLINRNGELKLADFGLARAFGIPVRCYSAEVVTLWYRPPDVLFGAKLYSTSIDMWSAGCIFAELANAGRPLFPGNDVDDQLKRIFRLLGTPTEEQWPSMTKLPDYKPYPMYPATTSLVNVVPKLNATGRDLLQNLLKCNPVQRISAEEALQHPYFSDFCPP", "sequence (Q15078 99-307 partner limits assumed)": "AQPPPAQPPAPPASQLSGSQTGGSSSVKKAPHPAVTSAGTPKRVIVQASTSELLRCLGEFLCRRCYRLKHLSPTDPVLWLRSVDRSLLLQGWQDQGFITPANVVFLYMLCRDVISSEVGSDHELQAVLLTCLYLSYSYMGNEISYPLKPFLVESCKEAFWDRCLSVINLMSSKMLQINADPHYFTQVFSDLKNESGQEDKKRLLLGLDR", "assay": "in vitro kinase assay", "format": "biochemical", "description": "as §1, §2"}, "[5]": {"molecular_target": "CDK7/CycH/Mat1 (Homo sapiens, UniProt P50613)", "assay": "in vitro kinase assay", "format": "biochemical", "description": "as §1, §2"}, "[6]": {"molecular_target": "CDK9/CycT (Homo sapiens, UniProt P50750)", "sequence (P50750 whole entry)": "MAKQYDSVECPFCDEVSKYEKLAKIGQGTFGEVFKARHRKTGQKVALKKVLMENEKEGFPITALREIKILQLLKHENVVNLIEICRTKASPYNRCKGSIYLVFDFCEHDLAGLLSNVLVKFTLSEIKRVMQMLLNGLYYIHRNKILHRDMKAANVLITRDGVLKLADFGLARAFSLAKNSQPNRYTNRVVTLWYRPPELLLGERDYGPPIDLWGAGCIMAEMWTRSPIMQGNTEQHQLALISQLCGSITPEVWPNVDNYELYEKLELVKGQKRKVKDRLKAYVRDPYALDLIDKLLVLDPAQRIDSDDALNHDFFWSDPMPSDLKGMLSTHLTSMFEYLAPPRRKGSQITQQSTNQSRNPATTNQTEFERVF", "sequence (O60563 whole entry partner)": "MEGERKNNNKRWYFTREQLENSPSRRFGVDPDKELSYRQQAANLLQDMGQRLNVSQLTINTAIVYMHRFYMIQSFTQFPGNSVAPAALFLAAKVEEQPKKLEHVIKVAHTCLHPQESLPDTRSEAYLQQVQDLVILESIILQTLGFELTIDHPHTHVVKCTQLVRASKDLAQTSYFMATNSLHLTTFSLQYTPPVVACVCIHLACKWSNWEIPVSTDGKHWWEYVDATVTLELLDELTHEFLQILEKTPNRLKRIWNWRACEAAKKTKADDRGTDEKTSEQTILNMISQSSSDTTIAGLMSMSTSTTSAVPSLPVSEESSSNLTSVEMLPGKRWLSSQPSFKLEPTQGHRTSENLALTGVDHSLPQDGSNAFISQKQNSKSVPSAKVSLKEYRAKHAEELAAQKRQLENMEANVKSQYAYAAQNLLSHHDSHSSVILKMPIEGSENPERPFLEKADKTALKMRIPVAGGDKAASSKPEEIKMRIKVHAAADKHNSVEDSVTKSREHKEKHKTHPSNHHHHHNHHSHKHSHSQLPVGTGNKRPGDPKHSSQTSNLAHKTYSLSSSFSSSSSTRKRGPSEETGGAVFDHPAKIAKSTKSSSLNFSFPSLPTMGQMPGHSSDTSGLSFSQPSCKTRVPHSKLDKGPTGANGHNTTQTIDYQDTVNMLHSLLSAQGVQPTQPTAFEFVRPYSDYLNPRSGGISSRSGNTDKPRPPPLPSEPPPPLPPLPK", "assay": "in vitro kinase assay", "format": "biochemical", "description": "as §1, §2"}, "[7]": {"molecular_target": "CHK1 (Homo sapiens, UniProt O14757)", "assay": "in vitro kinase assay", "format": "biochemical", "description": "as §1, §2"}, "[8]": {"molecular_target": "CSK (Homo sapiens, UniProt P41240)", "sequence (P41240 whole entry)": "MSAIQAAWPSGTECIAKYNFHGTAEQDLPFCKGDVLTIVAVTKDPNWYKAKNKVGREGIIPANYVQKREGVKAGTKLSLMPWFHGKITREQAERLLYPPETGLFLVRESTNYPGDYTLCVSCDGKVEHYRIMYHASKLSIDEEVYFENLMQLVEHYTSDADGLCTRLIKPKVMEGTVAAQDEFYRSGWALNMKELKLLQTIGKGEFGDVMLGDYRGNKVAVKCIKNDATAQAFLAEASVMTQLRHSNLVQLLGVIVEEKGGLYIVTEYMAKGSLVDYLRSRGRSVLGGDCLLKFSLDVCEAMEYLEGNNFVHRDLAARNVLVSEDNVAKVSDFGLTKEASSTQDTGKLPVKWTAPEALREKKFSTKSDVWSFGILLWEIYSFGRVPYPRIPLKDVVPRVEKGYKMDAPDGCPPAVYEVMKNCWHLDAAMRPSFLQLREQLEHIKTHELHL", "assay": "in vitro kinase assay", "format": "biochemical", "description": "as §1, §2"}, "[9]": {"molecular_target": "FGF-R1 VM (Homo sapiens, UniProt P11362, V561M)", "assay": "in vitro kinase assay", "format": "biochemical", "description": "as §1, §2"}, "[10]": {"molecular_target": "FGF-R2 (Homo sapiens, UniProt P21802)", "assay": "in vitro kinase assay", "format": "biochemical", "description": "as §1, §2"}, "[11]": {"molecular_target": "MET (Homo sapiens, UniProt P08581)", "assay": "in vitro kinase assay", "format": "biochemical", "description": "as §1, §2"}, "[12]": {"molecular_target": "MUSK (Homo sapiens, UniProt O15146)", "assay": "in vitro kinase assay", "format": "biochemical", "description": "as §1, §2"}, "[13]": {"molecular_target": "NLK (Homo sapiens, UniProt Q9UBE8)", "assay": "in vitro kinase assay", "format": "biochemical", "description": "as §1, §2"}, "[14]": {"molecular_target": "PAK4 (Homo sapiens, UniProt O96013)", "assay": "in vitro kinase assay", "format": "biochemical", "description": "as §1, §2"}, "[15]": {"molecular_target": "PAK7 (Homo sapiens, UniProt Q9P286)", "assay": "in vitro kinase assay", "format": "biochemical", "description": "as §1, §2"}, "[16]": {"molecular_target": "PKC-alpha (Homo sapiens, UniProt P17252)", "assay": "in vitro kinase assay", "format": "biochemical", "description": "as §1, §2"}, "[17]": {"molecular_target": "PKC-beta1 (Homo sapiens, UniProt P05771)", "assay": "in vitro kinase assay", "format": "biochemical", "description": "as §1, §2"}, "[18]": {"molecular_target": "PKC-gamma (Homo sapiens, UniProt P05129)", "assay": "in vitro kinase assay", "format": "biochemical", "description": "as §1, §2"}, "[19]": {"molecular_target": "PLK1 (Homo sapiens, UniProt P53350)", "assay": "in vitro kinase assay", "format": "biochemical", "description": "as §1, §2"}, "[20]": {"molecular_target": "S6K (Homo sapiens, UniProt P23443)", "sequence (P23443 whole entry)": "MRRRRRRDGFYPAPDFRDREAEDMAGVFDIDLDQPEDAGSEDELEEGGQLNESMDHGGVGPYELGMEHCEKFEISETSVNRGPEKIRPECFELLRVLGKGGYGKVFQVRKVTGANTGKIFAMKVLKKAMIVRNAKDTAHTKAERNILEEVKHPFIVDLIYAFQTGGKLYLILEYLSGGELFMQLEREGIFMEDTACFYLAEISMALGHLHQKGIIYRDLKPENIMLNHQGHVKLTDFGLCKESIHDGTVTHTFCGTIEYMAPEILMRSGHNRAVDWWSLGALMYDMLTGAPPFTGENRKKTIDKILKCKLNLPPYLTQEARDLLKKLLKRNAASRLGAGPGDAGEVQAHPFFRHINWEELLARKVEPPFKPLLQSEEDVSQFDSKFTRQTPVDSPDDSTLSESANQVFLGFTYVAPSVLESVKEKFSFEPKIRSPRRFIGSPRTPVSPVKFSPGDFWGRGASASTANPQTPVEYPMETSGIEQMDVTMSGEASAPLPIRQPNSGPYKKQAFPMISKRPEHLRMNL", "assay": "in vitro kinase assay", "format": "biochemical", "description": "as §1, §2"}, "[21]": {"molecular_target": "TGFB-R1 (Homo sapiens, UniProt P36897)", "assay": "in vitro kinase assay", "format": "biochemical", "description": "as §1, §2"}, "[22]": {"molecular_target": "TRK-C (Homo sapiens, UniProt Q16288)", "sequence (Q16288 32-839)": "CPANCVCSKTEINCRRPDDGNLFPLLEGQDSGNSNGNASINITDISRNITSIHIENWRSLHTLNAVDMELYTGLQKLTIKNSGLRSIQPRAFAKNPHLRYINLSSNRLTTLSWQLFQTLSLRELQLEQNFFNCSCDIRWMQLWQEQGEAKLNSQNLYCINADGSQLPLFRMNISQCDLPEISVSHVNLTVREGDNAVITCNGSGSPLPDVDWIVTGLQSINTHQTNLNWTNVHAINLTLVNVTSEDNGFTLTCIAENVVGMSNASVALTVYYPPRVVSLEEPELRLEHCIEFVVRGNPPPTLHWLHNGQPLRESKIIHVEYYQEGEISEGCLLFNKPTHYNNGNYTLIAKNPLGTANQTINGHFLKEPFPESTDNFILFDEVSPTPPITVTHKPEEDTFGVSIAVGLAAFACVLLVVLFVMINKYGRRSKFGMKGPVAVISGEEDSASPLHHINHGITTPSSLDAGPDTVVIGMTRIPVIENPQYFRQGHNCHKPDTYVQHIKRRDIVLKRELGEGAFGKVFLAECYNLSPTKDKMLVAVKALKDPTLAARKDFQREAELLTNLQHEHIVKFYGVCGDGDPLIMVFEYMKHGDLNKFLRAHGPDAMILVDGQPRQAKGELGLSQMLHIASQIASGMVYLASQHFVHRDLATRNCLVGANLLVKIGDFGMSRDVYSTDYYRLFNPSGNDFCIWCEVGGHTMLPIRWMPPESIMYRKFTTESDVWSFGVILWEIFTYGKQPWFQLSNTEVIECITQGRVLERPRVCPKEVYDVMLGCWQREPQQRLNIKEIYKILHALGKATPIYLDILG", "assay": "in vitro kinase assay", "format": "biochemical", "description": "as §1, §2"}, "[23]": {"molecular_target": "VRK1 (Homo sapiens, UniProt Q99986)", "assay": "in vitro kinase assay", "format": "biochemical", "description": "as §1, §2"}, "[24]": {"tested_on": "panel of 210 kinases representative of the human kinome", "assay": "in vitro kinase panel", "format": "biochemical", "conditions": "25 kinases selected for IC50, in vitro assays", "description": "as §1, §2"}, "[25]": {"tested_on": "U87", "assay": "cell viability assay", "format": "cell-based, human", "conditions": "U87 glioblastoma, 72 h, with respect to untreated control cells"}, "[26]": {"tested_on": "U251", "assay": "cell viability assay", "format": "cell-based, human", "conditions": "U251 glioblastoma, 72 h, with respect to untreated control cells"}, "[27]": {"tested_on": "Hut", "assay": "cell viability assay", "format": "cell-based, human", "conditions": "Hut T-cell lymphoma, 72 h, with respect to untreated control cells"}, "[28]": {"tested_on": "Karpas-45", "assay": "cell viability assay", "format": "cell-based, human", "conditions": "Karpas-45 T-cell lymphoma, 72 h, with respect to untreated control cells"}, "[29]": {"tested_on": "JVM-2", "assay": "cell viability assay", "format": "cell-based, human", "conditions": "JVM-2 B-cell lymphoma (MCL), 48 h, with respect to untreated control cells"}, "[30]": {"tested_on": "Rec-1", "assay": "cell viability assay", "format": "cell-based, human", "conditions": "Rec-1 B-cell lymphoma (MCL), 48 h, with respect to untreated control cells"}, "[31]": {"tested_on": "panel of NCl60 cell lines", "assay": "IC50 in NCI60 panel (overall)", "format": "cell-based", "conditions": "Homo sapiens, general order, read-out: antitumor activity (IC50) in general", "description": "(§3) On the other hand, the values of IC50 were determined in the panel of NCl60 cell lines for compound 10.\n(§4) A total of 2 independent experiments were carried out with assays in triplicate for the compound and cell line. All those assays where an IC50 value was not reached in the highest concentration of 1E-05 M are represented by “>1E-05”. In these cases, the standard deviation cannot be calculated and for that reason it is calculated as “-”."}, "[32]": {"tested_on": "A549 (Lung)", "assay": "NCI60 panel IC50", "format": "cell-based", "conditions": "Homo sapiens", "description": "as §3, §4"}, "[33]": {"tested_on": "ADR-RE-3 (Breast)", "assay": "NCI60 panel IC50", "format": "cell-based", "conditions": "Homo sapiens", "description": "as §3, §4"}, "[34]": {"tested_on": "DAUDI (Leukaemia)", "assay": "NCI60 panel IC50", "format": "cell-based", "conditions": "Homo sapiens", "description": "as §3, §4"}, "[35]": {"tested_on": "OVCAR-3 (Ovarian)", "assay": "NCI60 panel IC50", "format": "cell-based", "conditions": "Homo sapiens", "description": "as §3, §4"}, "[36]": {"tested_on": "T47-D (Breast)", "assay": "NCI60 panel IC50", "format": "cell-based", "conditions": "Homo sapiens, T47D", "description": "as §3, §4"}}, "note": "“And” between values parts separate entries of the source, which are not always exact repeats. Equal entries are not always repeated.", "data": [{"smiles": "CN1CCCNc2c(c(=O)c2=O)NCCCN(C)CCCNc2c(c(=O)c2=O)NCCCN(C)CCCNc2c(c(=O)c2=O)NCCCN(C)CCCNc2c(c(=O)c2=O)NCCCN(C)CCCNc2c(c(=O)c2=O)NCCC1", "note": "[Compound 10]", "values": [{"measurement": "IC50", "setting": "[1]", "result": 5.4, "unit": "µM"}, {"measurement": "inhibition of kinase Ack1", "setting": "[2]", "result": 85, "unit": "%"}, {"measurement": "IC50", "setting": "[3]", "result": "5.4 µM and 5.3 µM"}, {"measurement": "inhibition of kinase cdk5", "setting": "[4]; in vitro kinase assay", "result": 80, "unit": "%"}, {"measurement": "IC50", "setting": "[4]; kinase CDK5/p25NCK, in vitro", "result": 9.2, "unit": "µM"}, {"measurement": "IC50", "setting": "[5]", "result": 28, "unit": "µM"}, {"measurement": "inhibition of kinase cdk9", "setting": "[6]; in vitro kinase assay", "result": 87, "unit": "%"}, {"measurement": "IC50", "setting": "[6]; kinase CDK9/CycT, in vitro", "result": 3.7, "unit": "µM"}, {"measurement": "IC50", "setting": "[7]", "result": 1.4, "unit": "µM"}, {"measurement": "IC50", "setting": "[8]", "result": "13 µM and 7.2 µM"}, {"measurement": "IC50", "setting": "[9]", "result": 2.6, "unit": "µM"}, {"measurement": "IC50", "setting": "[10]", "result": 5.4, "unit": "µM"}, {"measurement": "IC50", "setting": "[11]", "result": 3.7, "unit": "µM"}, {"measurement": "IC50", "setting": "[12]", "result": 1.5, "unit": "µM"}, {"measurement": "IC50", "setting": "[13]", "result": 4.3, "unit": "µM"}, {"measurement": "IC50", "setting": "[14]", "result": 4.3, "unit": "µM"}, {"measurement": "IC50", "setting": "[15]", "result": 4.9, "unit": "µM"}, {"measurement": "IC50", "setting": "[16]", "result": 2.3, "unit": "µM"}, {"measurement": "IC50", "setting": "[17]", "result": 7.6, "unit": "µM"}, {"measurement": "IC50", "setting": "[18]", "result": "5.8 µM and 4.9 µM"}, {"measurement": "IC50", "setting": "[19]", "result": 26, "unit": "µM"}, {"measurement": "IC50", "setting": "[20]", "result": 4.4, "unit": "µM"}, {"measurement": "IC50", "setting": "[21]", "result": 3.3, "unit": "µM"}, {"measurement": "IC50", "setting": "[22]", "result": "7.2 µM and 6.6 µM"}, {"measurement": "IC50", "setting": "[23]", "result": 2.4, "unit": "µM"}, {"measurement": "inhibition of the 25 most sensitive kinases", "setting": "[24]", "result": "more than 80%"}, {"measurement": "% Cell viability", "setting": "[25]", "result": 25, "unit": "%"}, {"measurement": "% Cell viability", "setting": "[26]", "result": 85, "unit": "%"}, {"measurement": "% Cell viability", "setting": "[27]", "result": 60, "unit": "%"}, {"measurement": "% Cell viability", "setting": "[28]", "result": 13, "unit": "%"}, {"measurement": "% Cell viability", "setting": "[29]", "result": 24, "unit": "%"}, {"measurement": "% Cell viability", "setting": "[30]", "result": 44, "unit": "%"}, {"measurement": "IC50", "setting": "[31]", "result": "1 to 10", "unit": "µM"}, {"measurement": "IC50", "setting": "[32]", "result": 5.29, "unit": "µM"}, {"measurement": "IC50", "setting": "[33]", "result": 1.62, "unit": "µM"}, {"measurement": "IC50", "setting": "[34]", "result": 1.99, "unit": "µM"}, {"measurement": "IC50", "setting": "[35]", "result": 5.07, "unit": "µM"}, {"measurement": "IC50", "setting": "[36]", "result": 1.89, "unit": "µM"}]}]}
